# According to ChEMBL document CHEMBL4699511, “Cedrol, a Sesquiterpene Alcohol, Enhances the Anticancer Efficacy of Temozolomide in Attenuating Drug Resistance via Regulation of the DNA Damage Response and MGMT Expression” (J Nat Prod, 2020):
# What was measured:
# [1] = Inhibition of TMZ-induced drug resistance in human DBTRG-05MG cells assessed as MDR1 expression at 112.4 uM after 48 hrs by Western blot analysis (reference value: 1.5); format: functional
# [2] = Synergistic cytotoxicity against rat CTX TNA2 cells assessed as combination index at 112.4 uM after 48 hrs in presence of 412.1 uM TMZ by MTT assay; format: cell-based; conditions: ctx tna2, 48 h
# [3] = test system: DBTRG-05MG; test: Synergistic cytotoxicity against human DBTRG-05MG cells assessed as synergistic effect index at 112.4 uM after 48 hrs in presence of 206 uM TMZ by MTT assay; format: functional
# [4] = test system: DBTRG-05MG; test: Synergistic cytotoxicity against human DBTRG-05MG cells assessed as combination index at 89.9 uM after 48 hrs in presence of 515.1 uM TMZ by MTT assay; format: functional
# [5] = test system: DBTRG-05MG; test: Induction of apoptosis in human DBTRG-05MG cells assessed as Bax expression at 112.4 uM after 48 hrs by Western blot analysis (reference value: 1); format: functional
# [6] = Synergistic cytotoxicity against rat CTX TNA2 cells assessed as synergistic effect index at 134.9 uM after 48 hrs in presence of 206 uM TMZ by MTT assay; format: cell-based; conditions: ctx tna2, 48 h
# [7] = Inhibition of TMZ-induced drug resistance in rat RG2 cells assessed as MGMT expression at 112.4 uM after 48 hrs by Western blot analysis (reference value: 2); format: functional
# [8] = test system: DBTRG-05MG; test: Synergistic cytotoxicity against human DBTRG-05MG cells assessed as combination index at 112.4 uM after 48 hrs in presence of 515.1 uM TMZ by MTT assay; format: functional
# [9] = test system: RG2; test: Induction of cell cycle arrest in rat RG2 cells assessed as accumulation at S phase at 112.4 uM after 48 hrs in presence of TMZ by propidium iodide staining based flow cytometric analysis (reference value: 20.15 +/- 2.44%); format: functional
# [10] = test system: DBTRG-05MG; test: Inhibition of ERK phosphorylation at Tyr204 residues in human DBTRG-05MG cells at 112.4uM after 48 hrs in presence of TMZ by Western blot analysis (reference value: 1); format: cell-based
# [11] = test system: RG2; test: Synergistic cytotoxicity against rat RG2 cells assessed as synergistic effect index at 134.9 uM after 48 hrs in presence of 515.1 uM TMZ by MTT assay; format: functional
# [12] = test system: DBTRG-05MG; test: Induction of cell cycle arrest in human DBTRG-05MG cells assessed as accumulation at G0/G1 phase at 112.4 uM after 6 hrs in presence of TMZ by propidium iodide staining based flow cytometric analysis (reference value: 47.16 +/- 1.55%); format: functional
# [13] = test system: DBTRG-05MG; test: Induction of cell cycle arrest in human DBTRG-05MG cells assessed as CyclinD1 expression at 112.4 uM after 48 hrs in presence of TMZ by Western blot analysis (reference value: 1); format: functional
# [14] = Effect on ERK expression in human DBTRG-05MG cells at 112.4uM after 48 hrs in presence of TMZ by Western blot analysis (reference value: 1); format: functional
# [15] = test system: RG2; test: Induction of apoptosis in rat RG2 cells assessed as Bax expression at 112.4 uM after 48 hrs in presence of TMZ by Western blot analysis (reference value: 1); format: functional
# [16] = test system: RG2; test: Synergistic cytotoxicity against rat RG2 cells assessed as synergistic effect index at 89.9 uM after 48 hrs in presence of 515.1 uM TMZ by MTT assay; format: functional
# [17] = test system: RG2; test: Induction of cell cycle arrest in rat RG2 cells assessed as accumulation at G2/M phase at 112.4 uM after 12 hrs by propidium iodide staining based flow cytometric analysis (reference value: 20.04 +/- 0.55%); format: functional
# [18] = test system: RG2; test: Induction of cell cycle arrest in rat RG2 cells assessed as accumulation at S phase at 112.4 uM after 6 hrs by propidium iodide staining based flow cytometric analysis (reference value: 20.15 +/- 2.44%); format: functional
# [19] = Inhibition of TMZ-induced drug resistance in rat RG2 cells assessed as MDR1 expression at 112.4 uM after 48 hrs by Western blot analysis (reference value: 5.3); format: functional
# [20] = test system: DBTRG-05MG; test: Induction of cell cycle arrest in human DBTRG-05MG cells assessed as accumulation at G0/G1 phase at 112.4 uM after 48 hrs by propidium iodide staining based flow cytometric analysis (reference value: 47.16 +/- 1.55%); format: functional
# [21] = test system: RG2; test: Synergistic cytotoxicity against rat RG2 cells assessed as synergistic effect index at 89.9 uM after 48 hrs in presence of 309 uM TMZ by MTT assay; format: functional
# [22] = Effect on p38 expression in human DBTRG-05MG cells at 112.4uM after 48 hrs by Western blot analysis (reference value: 1); format: functional
# [23] = test system: RG2; test: Inhibition of AKT phosphorylation at S473 residues in rat RG2 cells at 112.4uM after 48 hrs by Western blot analysis; format: cell-based
# [24] = test system: DBTRG-05MG; test: Induction of DNA damage in human DBTRG-05MG cells assessed as Chk1 phosphorylation at ser345 residues at 112.4 uM after 48 hrs in presence of TMZ by Western blot analysis (reference value: 1); format: functional
# [25] = test system: RG2; test: Induction of cell cycle arrest in rat RG2 cells assessed as accumulation at G2/M phase at 112.4 uM after 24 hrs in presence of TMZ by propidium iodide staining based flow cytometric analysis (reference value: 20.04 +/- 0.55%); format: functional
# [26] = test system: DBTRG-05MG; test: Induction of DNA damage in human DBTRG-05MG cells assessed as Chk2 phosphorylation at Thr68 residues at 112.4 uM after 48 hrs by Western blot analysis (reference value: 1); format: functional
# [27] = test system: RG2; test: Induction of cell cycle arrest in rat RG2 cells assessed as accumulation at G0/G1 phase at 112.4 uM after 6 hrs in presence of TMZ by propidium iodide staining based flow cytometric analysis (reference value: 57.81 +/- 1.9%); format: functional
# [28] = test system: DBTRG-05MG; test: Induction of cell cycle arrest in human DBTRG-05MG cells assessed as CDK4 expression at 112.4 uM after 48 hrs in presence of TMZ by Western blot analysis (reference value: 1); format: functional
# [29] = test system: DBTRG-05MG; test: Induction of cell cycle arrest in human DBTRG-05MG cells assessed as accumulation at S phase at 206 uM after 6 hrs by propidium iodide staining based flow cytometric analysis (reference value: 22.76 +/- 1.56%); format: functional
# [30] = Effect on p38 expression in human DBTRG-05MG cells at 206 uM after 48 hrs by Western blot analysis (reference value: 1); format: functional
# [31] = test system: RG2; test: Induction of apoptosis in rat RG2 cells assessed as Bax expression at 206 uM after 48 hrs by Western blot analysis (reference value: 1); format: functional
# [32] = test system: DBTRG-05MG; test: Induction of cell cycle arrest in human DBTRG-05MG cells assessed as accumulation at G0/G1 phase at 206 uM after 6 hrs by propidium iodide staining based flow cytometric analysis (reference value: 47.16 +/- 1.55%); format: functional
# [33] = test system: RG2; test: Induction of cell cycle arrest in rat RG2 cells assessed as accumulation at S phase at 206 uM after 6 hrs by propidium iodide staining based flow cytometric analysis (reference value: 20.15 +/- 2.44%); format: functional
smiles,measurement,setting,value
C[C@@H]1CC[C@H]2C(C)(C)[C@H]3C[C@@]12CC[C@@]3(C)O [CEDROL],fold change (FC),[1],0.7
same,CI,[2],1.1
same,Activity_index,[3],0.88
same,CI,[4],0.81
same,fold change (FC),[5],1.3
same,Activity_index,[6],0.43
same,fold change (FC),[7],0.5
same,CI,[8],0.7
same,Activity,[9],20.29%
same,fold change (FC),[10],0.5
same,Activity_index,[11],0.89
same,Activity,[12],49.17%
same,fold change (FC),[13],0.4
same,fold change (FC),[14],0.8
same,fold change (FC),[15],2.21
same,Activity_index,[16],0.69
same,Activity,[17],18.1%
same,Activity,[18],17.99%
same,fold change (FC),[19],2
same,Activity,[20],53.13%
same,Activity_index,[21],0.72
same,fold change (FC),[22],1.1
same,fold change (FC),[23],0.8
same,fold change (FC),[24],1.4
same,Activity,[25],26.19%
same,fold change (FC),[26],1.9
same,Activity,[27],61.59%
same,fold change (FC),[28],0.6
Cn1nnc2c(C(N)=O)ncn2c1=O [TEMOZOLOMIDE],Activity,[29],24.76%
same,fold change (FC),[30],0.9
same,fold change (FC),[31],1.1
same,Activity,[32],40.56%
same,Activity,[33],24.46%
